Structures can show the parent of a compound that is named as a salt.
Key:
[1] = PAMPA; for Permeability (Log Pe, cm/sec) Porcine polar brain lipid (PBL): pig, pH 7.4
[2] = PAMPA
[3] = PAMPA; remark: listed apart in the source
[4] = PAMPA; for Permeability (Log Pe, cm/sec) Microvessel lipid + cholesterol (MVLC): pH 7.4
in vitro [5] = conditions: PAMPA, pH 7.4
in vitro [6] = conditions: PAMPA, pH 7.4; remark: listed apart in the source

## CCC(=O)C(CC(C)N(C)C)(c1ccccc1)c1ccccc1 (racemic) [Methadone, (±) methadone HCl]
[1]
  Permeability (Log Pe, cm/sec) Porcine polar brain lipid (PBL): −0.37 ± 0.07 cm/sec
[2]; pH 7.4
  Permeability (Log Pe, cm/sec) Dodecane: −1.54 ± 0.05 cm/sec

## Cc1nnc2n1-c1ccc(Cl)cc1C(c1ccccc1)=NC2 [Alprazolam, alprazolam]
[1]
  Permeability in the PBL model (in words): highly permeability
[3]
  Permeability in the MVL model (in words): highly permeability
[4]
  Permeability in the MVLC model (in words): highly permeability

## CO[C@]12CC[C@@]3(C[C@@H]1[C@](C)(O)C(C)(C)C)[C@H]1Cc4ccc(O[C@@H]5O[C@H](C(=O)O)[C@@H](O)[C@H](O)[C@H]5O)c5c4[C@@]3(CCN1CC1CC1)[C@H]2O5 [Buprenorphine glucuronide, buprenorphine-3-β-D-glucuronide]
[4]
  Permeability (Log Pe, cm/sec) Microvessel lipid + cholesterol (MVLC): −3.27 ± 0.21 cm/sec

## Cn1c(=O)c2c(ncn2C)n(C)c1=O [Caffeine, caffeine]
In vitro [5]
  Papp at 2 h, 2 µM: 724 ×10⁻⁶ cm/s

## CN1CC[C@]23c4c5ccc(O)c4O[C@H]2[C@@H](O)CC[C@H]3[C@H]1C5 [Dihydromorphine, dihydromorphine]
[1]
  Permeability (Log Pe, cm/sec) Porcine polar brain lipid (PBL): −1.76 ± 0.09 cm/sec
[2]
  Ability to cross the dodecane barrier: unable to cross the barrier
In vitro [5]
  Papp: 1510 ×10⁻⁶ cm/s

## CN(C)C(=O)C(CCN1CCC(O)(c2ccc(Cl)cc2)CC1)(c1ccccc1)c1ccccc1 [Loperamide, loperamide]
[4]
  Permeability (Log Pe, cm/sec) Microvessel lipid + cholesterol (MVLC): −1.97 ± 0.08 cm/sec

## CN(C)C[C@H]1CCCC[C@]1(O)c1cccc(O)c1 [O-desmethyl tramadol, O-desmethyltramadol]
[1]
  Permeability (Log Pe, cm/sec) Porcine polar brain lipid (PBL): −0.97 ± 0.04 cm/sec

## COc1ccc2c3c1O[C@H]1C(=O)CC[C@@]4(O)[C@@H](C2)N(C)CC[C@]314 [Oxycodone, oxycodone]
[2]
  Ability to cross the dodecane barrier: unable to cross the barrier

## COc1cccc(C2(O)CCCCC2CN(C)C)c1 (centres unmarked) [Tramadol]
In vitro [6]
  Papp: 117 ×10⁻⁶ cm/s

Source: PMC4078735 (Journal of biomolecular screening, 2013)
